These results are taken from patent US11179663B1, “Polyurethane-based materials” (Aviro LLC, priority 2021, dated 2021).

Assay [1] concerns COVID-19. Put plainly: coronavirus capture (attachment) test on coated surfaces, crystal violet stain read by spectrophotometer. The note with it: FIG. 1; virus capture by coated surfaces.
The test system of assay [2] is COVID-19. The assay can be described thus: coronavirus deactivation test after attachment to the surfaces, qPCR for genes indicative of COVID-19 activity. Particulars: FIG. 2; compared among the antiviral coatings.

For `CCCCCCCCCCCCCCCC[n+]1ccccc1` [CPC, Cetyl pyridinium chloride], the SARS-Cov2 capture entry in the assay on COVID-19 [1] was “roughly 95%”.
For `CCCCCCCCCCCCCCCCCC[N+](C)(C)CCC[Si](OC)(OC)OC.[Cl-]` [DMS, Dimethyloctadecyl[3-(trimethoxysilyl)propyl]ammonium chloride], in the assay with COVID-19 [2], the “potential to deactivate captured virus” value is “highest potential to deactivate”.
